Laboratory results taken from PMC12588666 (Therapeutic Drug Monitoring, 2025).

Legend:
[1] = system: S. aureus; assay: Susceptibility of intraoperative culture isolate, S. aureus (case 1); assay type: cell-based, Staphylococcus aureus; details: case 1 intraoperative culture
Description: (§1) Case 1: A patient (102.5 kg, creatinine clearance of 71 mL/min based on a 6-hour urine collection) developed a polymicrobial implant-associated spinal infection (IASI) after Th9-L3 spondylodesis and laminectomy at Th12. […] Surgical debridement was performed before dalbavancin therapy.
(§2) Intravenous vancomycin and ceftriaxone were initiated to treat S. aureus, P. mirabilis, and E. faecium. S. aureus was susceptible to both agents, P. mirabilis to ceftriaxone, and E. faecium to vancomycin. After 1 week, ceftriaxone was switched to oral ciprofloxacin.

[2] = system: P. mirabilis; assay: Susceptibility of intraoperative culture isolate, P. mirabilis (case 1); assay type: cell-based, Proteus mirabilis; details: case 1 intraoperative culture
Description: as §1, §2

[3] = system: E. faecium; assay: Susceptibility of intraoperative culture isolate, E. faecium (case 1); assay type: cell-based, Enterococcus faecium; details: case 1 intraoperative culture
Description: as §1, §2

[4] = Dalbavancin plasma concentrations by LC-MS/MS (TDM, case 1); assay type: in vivo, human
Source text: Background: Implant-associated spinal infections (IASI) pose challenges for outpatient management due to the need for frequent intravenous antibiotic administration. […] One patient received therapeutic drug monitoring (TDM)-guided dosing, while the other was managed with fixed-interval dosing. […] Both patients successfully completed therapy without recurrence of the infection during follow-up. […] Further research is required to establish standardized therapeutic drug monitoring protocols for the management of IASI.
The second 1500 mg dose followed on day 8, with TDM on days 22 and 28.

[5] = system: implant-associated spinal infection (IASI); assay: Clinical outcome and tolerability in patients with implant-associated spinal infection
Description: The total duration of the antimicrobial treatment was 12 weeks. Creatinine levels remained stable.
Symptoms resolved within 2.5 hours after 1-mg oral clemastine (antihistamine) and was discharged.

[6] = system: E. faecium; details: Clinical and Laboratory Standards Institute; cited from earlier work
Source text: (§3) The Clinical and Laboratory Standards Institute has defined a tentative susceptibility breakpoint o ...

[7] = system: S. aureus; details: in vivo; cited from earlier work
Source text: as §3

[8] = long half-life; cited from earlier work

SMILES	susceptibility of S. aureus [1]	susceptibility of P. mirabilis [2]	susceptibility of E. faecium [3]	trough concentration before the third dalbavancin infusion ([4]; case 1, 102.5 kg, CrCl 71 mL/min, after 1500 mg doses on day 1 and day 8, single patient) [mg/L]	peak plasma concentration after the third dalbavancin infusion ([4]; case 1, third 1500-mg dose on day 44, single patient) [mg/L]	infection recurrence at follow-up ([5]; both patients (case 1 TDM-guided three doses, case 2 fixed-interval four doses of 1500 mg))	blood, renal, and liver tests ([5]; case 2)	adverse reaction after the final dose ([5]; case 2, 85 kg, 4 off-label 1500-mg doses every 2 weeks without TDM)	severity of reaction ([5]; case 2, possibly due to the infusion)	tentative susceptibility breakpoint [6] [mg/L]	trough concentration corresponding to the ƒAUC24/MIC target [7] [µg/mL]	half-life [8] [h]
CO/N=C(\C(=O)N[C@@H]1C(=O)N2C(C(=O)O)=C(CSc3nc(=O)c(=O)[nH]n3C)CS[C@H]12)c1csc(N)n1 [ceftriaxone]	susceptible	susceptible	–	–	–	–	–	–	–	–	–	–
CN[C@H](CC(C)C)C(=O)N[C@H]1C(=O)N[C@@H](CC(N)=O)C(=O)N[C@H]2C(=O)N[C@H]3C(=O)N[C@H](C(=O)N[C@H](C(=O)O)c4cc(O)cc(O)c4-c4cc3ccc4O)[C@H](O)c3ccc(c(Cl)c3)Oc3cc2cc(c3O[C@@H]2O[C@H](CO)[C@@H](O)[C@H](O)[C@H]2O[C@H]2C[C@](C)(N)[C@H](O)[C@H](C)O2)Oc2ccc(cc2Cl)[C@H]1O [vancomycin]	susceptible	–	susceptible	–	–	–	–	–	–	–	–	–
CN[C@H]1C(=O)N[C@@H]2Cc3ccc(cc3)Oc3cc4cc(c3O[C@@H]3O[C@H](C(=O)O)[C@@H](O)[C@H](O)[C@H]3NC(=O)CCCCCCCCC(C)C)Oc3ccc(cc3Cl)[C@@H](O)[C@@H]3NC(=O)[C@H](NC(=O)[C@@H]4NC(=O)[C@@H](NC2=O)c2cc(cc(O)c2Cl)Oc2cc1ccc2O)c1ccc(O)c(c1)-c1c(O[C@H]2O[C@H](CO)[C@@H](O)[C@H](O)[C@@H]2O)cc(O)cc1[C@@H](C(=O)NCCCN(C)C)NC3=O [dalbavancin]	–	–	–	10.3	301.8	without infection recurrence up to 8 months after therapy	remained normal	nausea, vomited once, and had a painful, itchy, erythematous, and swollen face	moderate reaction	0.25	≥ 8	147 to 258
